Patent US5786348A, “Methods for preparation and use of 1α,24(S)-dihydroxy vitamin D2” (priority 1995, dated 1998)
“Also recorded” adds a separate entry of the source.

Assays:
[1] = Dermatological testing: topical ointment in dermatitis patients; format: in vivo, human; conditions: ointment 10 μg per gram, twice daily, four to six weeks
Method: Compositions containing 1α,24(S)-dihydroxy vitamin D2 are evaluated for therapeutic efficacy of the composition in the topical treatment of dermatitis (contact and ectopic). The composition evaluated is an ointment containing 10 μg of 1α,24-dihydroxy vitamin D2 per gram of ointment in a petrolatum-almond oil base. […] The patients are treated in an out-patient clinic. They are instructed to use the preparation two times a day.
The ointment is as far as possible applied to a single lesion, or to an area of the disease. The ointment and its container are weighed before the treatment starts and returned with any unused contents for reweighing at the end of the treatment.
The area of the lesion treated is estimated and recorded, and the lesion is photographed as required, together with suitable "control" lesions. The latter are preferably lesions of similar size and stage of development, either in the vicinity of the treated lesion or symmetrically contralateral. Relevant details of the photographic procedure are recorded so as to be reproduced when the lesions are next photographed (distance, aperture, angle, background, etc.). The ointment is applied twice daily and preferably left uncovered. The "control" lesions are left untreated, but if this is not possible, the treatment used on them is noted. […]

Human keratinocytes = assay: Epidermal cell differentiation and proliferation testing; format: cell-based; conditions: 0.05 to 5 μg/ml; against ethanol control cultures
Method: Human keratinocytes are cultured according to known modifications of the system originally described by Rheinwald and Green (Cell, vol. 6, p. 331 (1975)). The 1α,24(S)-dihydroxy vitamin D2, dissolved in ethanol, is added to cells to yield a variety of concentrations between 0.05 and 5 μg/ml with the ethanol concentration not to exceed 0.5% v/v. Control cultures are supplemented with ethanol at a final concentration of 0.5% v/v.
Differentiation and proliferation of epidermal cells in culture is examined by:
1. quantitation of cornified envelopes;
2. quantitation of cell density of cells attached to disks;
3. monitoring transglutaminase activity; or
4. monitoring DNA synthesis by incorporation of ^3 H-thymidine.

bovine thymus VDR = molecular target: T1, bovine thymus VDR (Bos taurus, UniProt Q28037); assay: Radioreceptor assay with bovine thymus VDR (Incstar), displacement of 3H-1α,25-(OH)2 D3; format: binding
T1 construct: commercially available kit of bovine thymus VDR; purchased Incstar (Stillwater, Minn.); host or cells: bovine thymus
T1 sequence (Q28037 1-426): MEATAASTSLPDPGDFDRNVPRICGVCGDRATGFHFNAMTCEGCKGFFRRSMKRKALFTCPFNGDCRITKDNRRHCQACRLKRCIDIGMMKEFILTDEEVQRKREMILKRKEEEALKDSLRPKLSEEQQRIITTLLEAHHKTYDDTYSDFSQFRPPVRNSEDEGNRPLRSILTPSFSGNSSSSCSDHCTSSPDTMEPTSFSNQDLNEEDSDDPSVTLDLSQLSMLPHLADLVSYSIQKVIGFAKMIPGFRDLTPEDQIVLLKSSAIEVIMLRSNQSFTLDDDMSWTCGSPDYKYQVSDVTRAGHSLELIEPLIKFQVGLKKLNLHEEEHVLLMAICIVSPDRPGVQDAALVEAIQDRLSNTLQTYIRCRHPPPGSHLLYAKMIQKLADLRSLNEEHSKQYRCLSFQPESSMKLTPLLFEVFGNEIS
Description: Purified 1α,24(S)-(OH)2 D2 was quantitated by photodiode array spectrophotometry and assayed in the radioreceptor assay.
The purified 1α,24(R)-(OH)2 D2 and 1α,24(S)-(OH)2 D2 epimers were quantitated by ultraviolet spectroscopy. The concentration of 1α,24(R)-(OH)2 D2 required to produce the same displacement of ^3 H-1α,25-(OH)2 D3 tracer from the receptor was 20 to 30 times that required for 1α,24(S)-(OH)2 D2, as shown in FIG. 4.

[2] = Dose ranging study in postmenopausal osteoporotic women; format: in vivo, human; conditions: oral 0.5 to 8.0 μg/day, rising weekly over five weeks
Method: Twenty postmenopausal osteoporotic women are enrolled in an open label study.
On admission to the study, all patients receive instruction on selecting a daily diet containing 400 to 600 mg of calcium. Compliance to this diet is verified at weekly intervals by 24-hour food records and by interviews with each patient.
All patients complete a one-week baseline period, a five-week treatment period, and a one-week post-treatment observation period. During the treatment period, patients orally self-administer 1α,24(S)-dihydroxyvitamin D2 at an initial dose of 0.5 μg/day for the first week, and at successively higher doses of 1.0, 2.0, 4.0, and 8.0 μg/day in each of the following four weeks. All doses are administered before breakfast.
Blood and urine chemistries are monitored on a weekly basis throughout the study. Key blood chemistries include fasting serum levels of calcium, phosphorus, osteocalcin, creatinine, and blood urea nitrogen. Key urine chemistries include 24-hour excretion of calcium, phosphorus, and creatinine.

IC50 (bovine thymus VDR; bovine thymus VDR radioreceptor assay, read-out: Half-maximal binding (converted)): ~0.35 nM
Routinely monitored serum parameters [2]: no effect
SMILES: C=C1/C(=C\C=C2/CCC[C@]3(C)[C@@H]([C@H](C)/C=C/[C@@](C)(O)C(C)C)CC[C@@H]23)C[C@@H](O)C[C@@H]1O [1α,24(S)-(OH)2 D2, 1α,24(S)-dihydroxy vitamin D2]
Incidence of hypercalcemia [1]: insignificant incidence
Lesion severity scores (erythema, scaling, thickness; 0 to 3) ([1]; against control lesions): lower scores than the control lesions
Cell density of attached cells (Human keratinocytes): fewer attached cells
Cornified envelopes (Human keratinocytes): more cornified envelopes
DNA synthesis (3H-thymidine incorporation) (Human keratinocytes): lower DNA synthesis
Transglutaminase activity (Human keratinocytes): higher transglutaminase activity
Affinity for VDR relative to 1α,25-(OH)2 D3 (bovine thymus VDR; compared with 1α,25-(OH)2 D3): two-fold less competitive; also recorded: two-fold lower affinity
24-hour urinary calcium levels [2]: modest increases
Serum osteocalcin levels [2]: increases
